Ends that are not written are not given here.
What was measured:
[1] = test system: A. baumannii ATCC19606; experiment: Outer membrane permeabilization (NPN uptake) assay; assay type: cell-based, Acinetobacter baumannii; settings: peptides at MIC, compared to untreated control and polymyxin B
Procedure: (§1) FIG. 3. Synergy, resistance development and mechanism of action studies of encrypted peptides. […] (FIG. 3B) Evolution of resistance by A. baumannii to encrypted peptides derived from the CUB domain (red) or polymyxin B (gray) after 30 days of serial passaging in liquid nutrient broth. Peptides and antibiotics were used at sub-inhibitory concentrations. Cells were passaged every 48 h. […] (FIG. 3D) Cytoplasmic membrane depolarization effects of the encrypted peptides against A. baumannii. (FIG. 3E) NPN assays showing the effect of encrypted peptides derived from the CUB domain and natriuretic peptide on permeabilization of the outer membrane of A. baumannii.
In order to investigate the mode of action of encrypted peptides against bacterial cells, assays were performed to study their effects on the bacterial membrane. First, the ability of encrypted peptides to disrupt and depolarize the bacterial cytoplasmic membrane was assessed […]. 3,3′-dipropylthiadicarbocyanine iodide [DiSC3(5)] was used, a potentiometric fluorophore that accumulates and aggregates in the cytoplasmic membrane, quenching its fluorescence. Upon imbalances of the cytoplasmic membrane transmembrane potential, the fluorophore migrates to the cytoplasm or the outer environment, generating fluorescence. […]
Methods: Membrane depolarization assays. The cytoplasmic membrane depolarization activity of the peptides was determined by measurements of fluorescence of the membrane potential-sensitive dye, DiSC3(5). […] Thereafter, the cells (100 μL) were incubated for 15 min with 20 nmol L^−1 of DiSC3(5) until a stable reduction of fluorescence was achieved, indicating the incorporation of the dye into the bacterial membrane. Membrane depolarization was then monitored by observing the change in the fluorescence emission intensity of the membrane potential-sensitive dye, DiSC3(5) (λex=622 nm, λem=670 nm), after the addition of peptides (100 μL solution at MIC values). […] The membrane permeability of the peptides was determined by using the N-phenyl-1-napthylamine (NPN) uptake assay. […]

[2] = test system: P. aeruginosa PAO1; experiment: Outer membrane permeabilization (NPN uptake) assay; assay type: cell-based, Pseudomonas aeruginosa; settings: peptides at MIC
Procedure: (§2) FIG. 10. Membrane permeabilization and depolarization assays for several bacterial strains. […] FIG. 10B: Cytoplasmic membrane depolarization assays performed against P. aeruginosa PAO1 and the gut commensal B. fragilis ATCC25285.
(§3) Methods: Membrane depolarization assays. The cytoplasmic membrane depolarization activity of the peptides was determined by measurements of fluorescence of the membrane potential-sensitive dye, DiSC3(5). Briefly, A. baumannii ATCC19606, P. aeruginosa PAO1 and B. fragilis ATCC25285 were grown at 37° C. with agitation until they reached mid-log phase (OD600=0.5). […] Thereafter, the cells (100 μL) were incubated for 15 min with 20 nmol L^−1 of DiSC3(5) until a stable reduction of fluorescence was achieved, indicating the incorporation of the dye into the bacterial membrane. Membrane depolarization was then monitored by observing the change in the fluorescence emission intensity of the membrane potential-sensitive dye, DiSC3(5) (λex=622 nm, λem=670 nm), after the addition of peptides (100 μL solution at MIC values). […] The membrane permeability of the peptides was determined by using the N-phenyl-1-napthylamine (NPN) uptake assay. […] The background fluorescence was recorded at λex=350 nm and λem=420 nm. […]

[3] = test system: B. fragilis ATCC25285; experiment: Outer membrane permeabilization (NPN uptake) assay; assay type: cell-based, Bacteroides fragilis; settings: peptides at MIC
Procedure: as §2, §3

[4] = test system: S. epidermidis; experiment: Outer membrane permeabilization (NPN uptake) assay; assay type: cell-based, Staphylococcus epidermidis; settings: peptides at MIC
Procedure: as §2, §3

[5] = test system: A. baumannii; experiment: Bacterial resistance development assay (serial passaging); assay type: cell-based, Acinetobacter baumannii; settings: after 26 days of serial passaging at sub-inhibitory concentrations
Procedure: as §1
In any antibiotic discovery effort, it is crucial to assess how readily the molecules identified select for resistance mechanisms in bacteria, as the emergence of resistance has hampered the antibiotic field since its very inception with the discovery of penicillin in 1928^38. To determine whether bacteria become resistant to encrypted peptides, longitudinal resistance assays were performed with peptides derived from the CUB domains 1 and 3 against A. baumannii, using polymyxin B as a control (FIG. 3B).
Methods: Bacterial resistance development assays. The evolution of resistance by A. baumannii cells to encrypted peptides was monitored for 30 days of serial passaging in liquid nutrient broth. […]

natriuretic peptide: peptide hormone responsible for inducing the excretion of sodium by the kidneys (P01160) (SLRRSSCFGGRMDRIGAQSGLGCNSFRY; ends and bridges not checked; cysteine pairing not given here; UniProt P01160 124-151, looked up)
outer membrane permeabilization (NPN fluorescence) [1]: increased fluorescence
outer membrane permeabilization (NPN) [2]: permeabilized
outer membrane permeabilization (NPN) [3]: permeabilized
outer membrane permeabilization (NPN) [4]: permeabilized

polymyxin B
increase of concentrations needed to kill A. baumannii [5]: ≤ 256 fold
